Data on four compounds can be found in PMC10257182, “Discovery of senolytics using machine learning” (Nature Communications, 2023).

This experiment deals with non-senescent control IMR90 ER:RAS cells. The experiment can be described thus: Nuclei count (Hoechst, high content imaging) senolytic assay, OIS model, non-senescent control cells. The class given is cell-based, human. The conditions noted are these: for viability at 10 µM / viability at 4.677 µM / viability at 2.188 µM / viability at 1 µM / viability at 0.4677 µM / viability at 0.2188 µM / viability at 0.1 µM / viability at 0.04677 µM / viability at 0.02188 µM / viability at 0.01 µM / viability at 4.68 µM / viability at 2.19 µM / viability at 0.468 µM / viability at 0.219 µM / viability at 0.0219 µM: Homo sapiens. An outline of the steps:
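Senolytic read-out as total nuclei per well by automated Hoechst imaging after 72 h compound exposure (10 μM to 10 nM, 10-point […], triplicate), relative to untreated controls. Paired cultures: IMR90 ER:RAS kept non-senescent or made senescent with 100 nM final 4-OHT; ouabain served as positive control.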

Where [1] appears, read: IMR-90, 72 h, Control, log (dose) [M] -5, 72 h, mean n=3 (Fig 3C), read-out: Mean % Cell Survival.
Where [2] appears, read: IMR-90, 72 h, Control, log (dose) [M] -5.33, 72 h, mean n=3 (Fig 3C), read-out: Mean % Cell Survival.
[3] abbreviates: IMR-90, 72 h, Control, log (dose) [M] -5.66, 72 h, mean n=3 (Fig 3C), read-out: Mean % Cell Survival.
[4] abbreviates: IMR-90, 72 h, Control, log (dose) [M] -6, 72 h, mean n=3 (Fig 3C), read-out: Mean % Cell Survival.
Where [5] appears, read: IMR-90, 72 h, Control, log (dose) [M] -6.33, 72 h, mean n=3 (Fig 3C), read-out: Mean % Cell Survival.
Setting [6] is: IMR-90, 72 h, Control, log (dose) [M] -6.66, 72 h, mean n=3 (Fig 3C), read-out: Mean % Cell Survival.
[7] abbreviates: IMR-90, 72 h, Control, log (dose) [M] -7, 72 h, mean n=3 (Fig 3C), read-out: Mean % Cell Survival.
The mark [8] stands for this setting: IMR-90, 72 h, Control, log (dose) [M] -7.33, 72 h, mean n=3 (Fig 3C), read-out: Mean % Cell Survival.
Setting [9] is: IMR-90, 72 h, Control, log (dose) [M] -7.66, 72 h, mean n=3 (Fig 3C), read-out: Mean % Cell Survival.
Setting [10] is: IMR-90, 72 h, Control, log (dose) [M] -8, 72 h, mean n=3 (Fig 3C), read-out: Mean % Cell Survival.
Where [11] appears, read: IMR-90, Control, log (dose) [M] -5, read-out: % Cell Survival.
Where [12] appears, read: IMR-90, Control, log (dose) [M] -5.33, read-out: % Cell Survival.
Setting [13] is: IMR-90, Control, log (dose) [M] -5.66, read-out: % Cell Survival.
The mark [14] stands for this setting: IMR-90, Control, log (dose) [M] -6, read-out: % Cell Survival.
Setting [15] is: IMR-90, Control, log (dose) [M] -6.33, read-out: % Cell Survival.
Setting [16] is: IMR-90, Control, log (dose) [M] -6.66, read-out: % Cell Survival.
Where [17] appears, read: IMR-90, Control, log (dose) [M] -7, read-out: % Cell Survival.
Setting [18] is: IMR-90, Control, log (dose) [M] -7.33, read-out: % Cell Survival.
Setting [19] is: IMR-90, Control, log (dose) [M] -7.66, read-out: % Cell Survival.
Where [20] appears, read: IMR-90, Control, log (dose) [M] -8, read-out: % Cell Survival.
[21] abbreviates: IMR-90, Control cells, log (dose) [M] -7.33, individual replicates, SUP FIG 4C, read-out: % Cell Survival.

Values joined by “and” are separate entries in the source; they are usually repeats but may differ in a detail not shown here. Identical values can stand only once. Counter-ions that a name gives are not always drawn. Like-named read-outs stand apart in the source and are kept apart here.

On to `CC(C)=CCc1c(O)cc2oc3cc(O)c(O)c(CC=C(C)C)c3c(=O)c2c1O` [Gamma mangostin, gamma mangostin], for which the “% Cell Survival” value (Control cells, log (dose) [M] -5, individual replicates, SUP FIG 4C) is 83.3507% and 108.05% and 79.5367% and 95.8097%; the “% Cell Survival” value (Control cells, log (dose) [M] -5.33, individual replicates, SUP FIG 4C) was 87.0968% and 96.0317% and 81.9498% and 89.128%; the “% Cell Survival” value (Control cells, log (dose) [M] -5.66, individual replicates, SUP FIG 4C) is 85.64% and 147.846% and 85.3282% and 103.058%; the “% Cell Survival” value (Control cells, log (dose) [M] -6, individual replicates, SUP FIG 4C) was 61.4984% and 93.424% and 84.0734% and 96.1495%; the “% Cell Survival” value (Control cells, log (dose) [M] -6.33, individual replicates, SUP FIG 4C) is 89.5942% and 95.6916% and 116.216% and 74.9717%; the “% Cell Survival” value (Control cells, log (dose) [M] -6.66, individual replicates, SUP FIG 4C) was 89.282% and 97.3923% and 91.7954% and 95.8097%. In addition, the “% Cell Survival” value runs as follows: (Control cells, log (dose) [M] -7, individual replicates, SUP FIG 4C) 92.924% and 97.5057% and 90.1544% and 99.6602%; (Control cells, log (dose) [M] -7.33, individual replicates, SUP FIG 4C) 93.7565% and 97.2789% and 93.4363% and 109.513%; (Control cells, log (dose) [M] -7.66, individual replicates, SUP FIG 4C) 96.9823% and 99.8866% and 98.9382% and 108.494%; (Control cells, log (dose) [M] -8, individual replicates, SUP FIG 4C) 107.7% and 97.0522% and 93.3398% and 109.173%; (Control, log (dose) [M] -5) 92.5926% and 96.693% and 91.9267%; (Control, log (dose) [M] -5.33) 94.2308% and 86.4127% and 82.768%. Also, the “% Cell Survival” value (Control, log (dose) [M] -5.66) is 90.6695% and 83.6808% and 81.9539%; the “% Cell Survival” value (Control, log (dose) [M] -6) was 85.6125% and 87.1316% and 81.6147%; the “% Cell Survival” value (Control, log (dose) [M] -6.33) is 95.7977% and 84.3997% and 85.8209%; the “% Cell Survival” value (Control, log (dose) [M] -6.66) is 91.7379% and 85.9813% and 84.5319%; the “% Cell Survival” value (Control, log (dose) [M] -7) was 95.6553% and 92.739% and 90.502%; the “% Cell Survival” value (Control, log (dose) [M] -7.33) is 96.8661% and 91.0137% and 90.4342%. The “% Cell Survival” value by setting is: (Control, log (dose) [M] -7.66) 96.7236% and 96.7649% and 94.3691%; (Control, log (dose) [M] -8) 100.783% and 103.882% and 95.7938%. The “Mean % Cell Survival” value reads like this: (Control, log (dose) [M] -5, 72 h, mean n=3 (Fig 3C)) 91.6867%; (Control, log (dose) [M] -5.33, 72 h, mean n=3 (Fig 3C)) 88.5516%; (Control, log (dose) [M] -5.66, 72 h, mean n=3 (Fig 3C)) 105.468%; (Control, log (dose) [M] -6, 72 h, mean n=3 (Fig 3C)) 83.7863%; (Control, log (dose) [M] -6.33, 72 h, mean n=3 (Fig 3C)) 94.1184%; (Control, log (dose) [M] -6.66, 72 h, mean n=3 (Fig 3C)) 93.5698%. In addition, the “Mean % Cell Survival” value by setting is: (Control, log (dose) [M] -7, 72 h, mean n=3 (Fig 3C)) 95.0611%; (Control, log (dose) [M] -7.33, 72 h, mean n=3 (Fig 3C)) 98.4962%; (Control, log (dose) [M] -7.66, 72 h, mean n=3 (Fig 3C)) 101.075%; (Control, log (dose) [M] -8, 72 h, mean n=3 (Fig 3C)) 101.816%.
On to `O=c1cc(-c2ccc(O)cc2)oc2cc(O)c(O)c(O)c12` [Scutellarein, scutellarein], for which the viability at 10 µM is, setting by setting: under setting [1], 97.3%; under setting [11], 112%. Besides, the viability at 4.677 µM under setting [2] was found to be 95.7%. Moreover, under setting [3], the viability at 2.188 µM was found to be 88.9%. The viability at 1 µM was found to be 88.2% under setting [4] and 108% under setting [14]. Also, the viability at 0.4677 µM under setting [5] turned out to be 95.4%. The viability at 0.2188 µM under setting [6] was 109%. The viability at 0.1 µM by setting is: under setting [7], 118%; under setting [17], 107%. In addition, the viability at 0.04677 µM reads like this: under setting [8], 130%; under setting [18], 102%. Moreover, under setting [9], the viability at 0.02188 µM was determined as 117%. The viability at 0.01 µM runs as follows: under setting [10], 121%; under setting [20], 107%. The viability at 4.68 µM under setting [12] was 101%. Also, under setting [13], the viability at 2.19 µM is 102%. Also, the viability at 0.468 µM under setting [15] came out at 101%. Moreover, the viability at 0.219 µM under setting [16] is 107%. In addition, the viability at 0.0219 µM under setting [19] was determined as 99.8%.
On to `COC[C@H]1C[C@@H](c2nc(-c3ccc4c(c3)COc3cc5c(ccc6nc([C@@H]7CC[C@H](C)N7C(=O)[C@@H](NC(=O)OC)C(C)C)[nH]c65)cc3-4)c[nH]2)N(C(=O)[C@H](NC(=O)OC)c2ccccc2)C1` [Velpatasvir, velpatasvir, reference compound], for which the viability at 10 µM runs as follows: under setting [1], 119%; (IMR-90, Control cells, log (dose) [M] -5, individual replicates, SUP FIG 4C, read-out: % Cell Survival) 113%; under setting [11], 82.9%. The viability at 4.677 µM under setting [2] stood at 116%. For the same compound, the viability at 2.188 µM under setting [3] was determined as 113%. For the same compound, the viability at 1 µM under setting [4] came to 115% and the viability at 1 µM under setting [14] was 80.7%. For the same compound, the viability at 0.4677 µM under setting [5] is 86.1%. In addition, the viability at 0.2188 µM under setting [6] amounted to 99.9% and the viability at 0.2188 µM (IMR-90, Control cells, log (dose) [M] -6.66, individual replicates, SUP FIG 4C, read-out: % Cell Survival) was found to be 91.6%. Also, the viability at 0.1 µM is, setting by setting: under setting [7], 98.3%; under setting [17], 91.2%. The viability at 0.04677 µM runs as follows: under setting [8], 106%; under setting [21], 101%; under setting [18], 89.7%. Besides, the viability at 0.02188 µM under setting [9] amounted to 110%. Moreover, the viability at 0.01 µM is 96.2% under setting [10] and 97.1% under setting [20]. For the same compound, the viability at 4.68 µM under setting [12] was 85.2%. Moreover, the viability at 2.19 µM under setting [13] worked out at 80.3%. Further, the viability at 0.219 µM under setting [16] stood at 86%. Further, the viability at 0.0219 µM under setting [19] amounted to 95.3%.
`CC[C@]1(O)C[C@@H]2CN(CCc3c([nH]c4ccccc34)[C@@](C(=O)OC)(c3cc4c(cc3OC)N(C)[C@H]3[C@@](O)(C(=O)OC)[C@H](OC(C)=O)[C@]5(CC)C=CCN6CC[C@]43[C@@H]65)C2)C1` [Vinblastine sulfate, vinblastine sulfate, reference compound]: the viability at 10 µM by setting is: under setting [1], 51.7%; under setting [11], 46.8%. Besides, the viability at 4.677 µM under setting [2] is 55.1%. The viability at 2.188 µM under setting [3] came to 57.9%. Moreover, the viability at 1 µM is, setting by setting: under setting [4], 76.4%; under setting [14], 41.3%. For the same compound, the viability at 0.4677 µM under setting [5] came out at 76.9%. Further, the viability at 0.2188 µM under setting [6] was 80.8%. For the same compound, the viability at 0.1 µM under setting [7] stood at 104%. Also, the viability at 0.04677 µM runs as follows: under setting [8], 112%; under setting [21], 114%. Under setting [9], the viability at 0.02188 µM turned out to be 104%. The viability at 0.01 µM runs as follows: under setting [10], 105%; (IMR-90, Control cells, log (dose) [M] -8, individual replicates, SUP FIG 4C, read-out: % Cell Survival) 102%. For the same compound, the viability at 4.68 µM under setting [12] is 42.3%. The viability at 2.19 µM under setting [13] is 47.6%. Further, the viability at 0.468 µM under setting [15] amounted to 41.5%.
